Here are results for 79 compounds from the METLIN SMRT retention time set (Domingo-Almenara et al. 2019).

This data set can be described thus: gradient 5% acetonitrile 3 min, to 50% in 2 min, to 85% in 15 min, held 3 min, 100 µL/min. The conditions noted are these: column: Zorbax Extend-C18 2.1 x 50 mm; eluents: water / acetonitrile, 0.1% formic acid. Summed up:
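A Zorbax Extend-C18 column (2.1 × 50 mm, 1.8 μm) run at 100 μL/min with water and acetonitrile, both containing 0.1% formic acid, separated mixtures of ~100 pure standards. The HPLC was coupled to a quadrupole time-of-flight mass spectrometer operated in positive and negative ionization mode, with dead and dwell volumes of 40 μL and 900 μL. Each retention time was taken from a computationally picked adduct peak that was then manually inspected.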
Compound `CCOc1ccc(N(C)S(=O)(=O)c2ccsc2C(=O)NC2CCCC2)cc1` showed an RP-LC retention time of 1030 s. As for `O=S(=O)(Cc1cccc(Cl)c1)N1CCc2nc(-c3ccc(F)cc3)ncc2C1`, the RP-LC retention time is 1110 s. The compound `O=C(NCCCN1CCCC1=O)c1ccc2ncnc(N3CCCCC3)c2c1` showed an RP-LC retention time of 584 s.

Take `Cc1nc(C)c(-c2ccc(SCC(=O)Nc3ccc4c(c3)OCCO4)nn2)s1`: the RP-LC retention time was found to be 690 s. Next, `O=C(O)CCC1CCN(S(=O)(=O)c2cccc(F)c2)CC1`: 765 s; `Cc1[nH]c2ccccc2c1C(=O)C(=O)NCCn1ccc2ccccc21`: 844 s. The compound `O=C(NCc1ccc(F)cc1)N1CCCC1c1nc(-c2ccc(F)cc2F)no1` (centres undefined) had an RP-LC retention time of 897 s. Compound `CC1CCN(c2cc(-n3cnc(C(=O)N4CCc5ccccc5C4)c3)ncn2)CC1` displayed an RP-LC retention time of 1060 s.

Take `CCCn1cnc2cc(CNC(=O)CCc3ccccc3)ccc21`: the RP-LC retention time came out at 640 s. Compound `CCc1nc(OCC(=O)Nc2ccc(Cl)cc2C(F)(F)F)c2ccccc2n1` showed an RP-LC retention time of 942 s. Next, `CCc1cccc(N(C)C(N)=Nc2cccc3ccccc23)c1`: 846 s. The compound `C1=CC2(C=C1)OC21CCC2(C=CC3(C2)OC3C2CCCCC2)CC1` (centres undefined) yielded an RP-LC retention time of 798 s.

For the compound `Cc1sc2ccn(Cc3ccc(F)cc3)c(=O)c2c1C(=O)NCC1CCCO1` (centres undefined), the RP-LC retention time is 775 s. As for `CCC1Oc2ccc(S(=O)(=O)N3CCC(C(=O)NCc4ccc(Cl)cc4)CC3)cc2NC1=O` (centres undefined), the RP-LC retention time amounted to 887 s. Next, `Cc1ccn2c(NC(=O)c3ccccc3)c(-c3ccccc3)nc2c1`: 646 s; `Cn1nccc1-c1cccc(-c2noc(-c3ccc(C#N)cc3)n2)c1`: 1050 s; `CCn1cc(-c2ccc(F)cc2)cc1C(=O)NCc1ccccn1`: 722 s. Next, `CC(=O)N1CCc2cc(N3CC(C(=O)NCC(C)C)CC3=O)ccc21` (centres undefined): 643 s; `CS(=O)(=O)N1CCCN(C(=O)c2ccccc2)CC1`: 638 s; `COc1ccc(NC(=O)c2cn3c(n2)CCCC3)cc1OC`: 570 s. Turning to `O=c1ccc(-c2ccc3c(c2)OCO3)nn1Cc1nc(-c2ccccc2)no1`, the RP-LC retention time was found to be 939 s. As to `Cc1cccc(N2C(=O)CN(Cc3ccccc3F)[C@H]3CS(=O)(=O)C[C@H]32)c1`, the RP-LC retention time was 803 s. `CCCCN(CCCNC(=O)C1CCN(S(=O)(=O)CCC)CC1)Cc1ccccc1` showed an RP-LC retention time of 672 s. For `C=CCNC(=O)C1CCN(S(=O)(=O)c2cc(Cl)ccc2OCC)CC1`, the RP-LC retention time is 767 s. For the compound `Cc1cccc(C2(O)C(=O)N(Cc3nc(-c4ccccc4)oc3C)c3ccccc32)c1` (centres undefined), the RP-LC retention time is 1120 s. For `COc1ccccc1NC(=O)N1CCN(c2cc(C)nc(N3CCCC3)n2)CC1`, the RP-LC retention time amounted to 673 s. `CCNc1nc(C)cc(N2CCN(S(=O)(=O)c3cc(Cl)ccc3Cl)CC2)n1` came in with an RP-LC retention time of 776 s.

Regarding `CCc1noc2nc(CCC(=O)NCCCN3CCN(CC)CC3)nc(N3CCCCC3)c12`, the RP-LC retention time was 595 s.

For `CC12CC(c3ccccc3O1)C(C(=O)N1CCN(C(=O)c3ccco3)CC1)C(=O)N2` (centres undefined), the RP-LC retention time turned out to be 624 s. In turn, `Cn1cc(S(=O)(=O)N2CCOCC2)cc1C(=O)N1CCN(c2ccc(F)cc2)CC1` showed an RP-LC retention time of 806 s. Next, `COC(=O)c1ccccc1NC(=O)CN1C(=O)CN=C(c2ccccc2)c2ccccc21`: 958 s; `Cc1ccc2[nH]c(=O)c(CCC(=O)NCCCN3CCCC(C)C3)cc2c1` (centres undefined): 594 s; `CC(C)NC(=O)C1CCN(c2nc3ccc(-c4ccccc4F)nc3s2)CC1`: 915 s. `COc1ccc(-c2cn3ccn(-c4ccc(F)c(Cl)c4)c(=O)c3n2)cc1` gave an RP-LC retention time of 862 s. Next, `CC(C)S(=O)(=O)N1CCC2(CC1)NCCCN=C2Nc1cccc(F)c1`: 638 s; `Cc1ccc2c(Nc3cc(F)cc(F)c3)c(C(=O)N3CCSCC3)cnc2n1`: 645 s.

As for `COc1ccc2[nH]c(-c3ccccc3)c(CCNC(C)=O)c2c1`, the RP-LC retention time came out at 832 s.

The compound `COc1ccc(NC(=O)Cn2c(N3CCCC3)nc(C)cc2=O)cc1OC` showed an RP-LC retention time of 601 s. `Cc1ccc(-c2cc3n(n2)CCCN(C(=O)C2CCOC2)C3)cc1` (centres undefined): the RP-LC retention time is 712 s. Next, `CCCn1cc(S(=O)(=O)Nc2cc(F)ccc2Cl)c2cccnc21`: 950 s; `CC1CCCN(CC2CCN(S(=O)(=O)Cc3ccc(Cl)cc3)CC2)C1` (centres undefined): 690 s. As to `N#Cc1nc(-c2ccc(COc3ccc(Cl)cc3)o2)oc1N1CCC(C(N)=O)CC1`, the RP-LC retention time is 806 s. Next, `Cc1cc2nn(CC(=O)Nc3ccc(C)c(C)c3)c(=O)n2c(-c2ccccc2)n1`: 868 s; `O=C(NCCNC(=O)c1cccc(Cl)c1)c1ccc(NC(=O)C2CC2)cc1`: 667 s. `N#Cc1ccc(Cn2cc(C(=O)C(N)=O)c3ccccc32)cc1` registered an RP-LC retention time of 810 s. `CCN(C(=O)Cn1nc2cc(-c3ccccc3)nc(C)n2c1=O)c1ccccc1` showed an RP-LC retention time of 985 s. Next, `O=C(NCC(c1cccnc1)N1CCN(Cc2ccccc2)CC1)Nc1ccccc1Cl` (centres undefined): 554 s; `CCc1nc(N)n(CC(=O)Nc2ccccc2F)c(=O)c1C`: 599 s. Next, `COC(=O)C1=CN(c2ccc(C(=O)OC)cc2)c2ccccc2S1(=O)=O`: 747 s. Next, `COc1ccc(-c2noc(C3CCCN3C(=O)Nc3ccc4c(c3)OCCO4)n2)cc1` (centres undefined): 752 s; `COc1ccc(OC)c(NC(=O)C2CCCN2S(=O)(=O)c2ccc3c(c2)CC(C)N3C(C)=O)c1` (centres undefined): 863 s. As for `CC(=O)Nc1ccc(CCc2nc3ccc(C(=O)NC(C)CCc4ccccc4)cc3[nH]2)cc1` (centres undefined), the RP-LC retention time came to 682 s. Take `COc1ccc(S(=O)(=O)Nc2cccnc2Nc2ccc(O)cc2)cc1`: the RP-LC retention time is 687 s. Turning to `Cc1ccc(-c2nnc(-c3nc(NCCN4CCCC4)c4ccccc4n3)o2)cc1`, the RP-LC retention time worked out at 713 s. Consider `CN1C(=O)c2cc(C(=O)NCCc3ccc(Cl)cc3)nn2CC1(C)C(=O)NCc1ccccc1` (centres undefined), for which the RP-LC retention time is 823 s. Turning to `CC(=O)Nc1ccc(OCC(=O)N(C)Cc2ccccc2)nc1`, the RP-LC retention time came to 544 s. Next, `O=C(Cc1ccc(F)cc1)NCCNc1cc(-n2cccn2)ncn1`: 652 s; `COc1ccc(Nc2nc(C(=O)Nc3ccc4c(c3)OCCO4)cs2)c(OC)c1`: 865 s. `Cc1nn(C)c(C)c1CCCN(C)C(=O)COc1ccc(NC(=O)C2CC2)cn1` yielded an RP-LC retention time of 605 s.

As to `O=C(Nc1nccs1)C1CCCN(c2ccc3cc(S(=O)(=O)N4CCCC4)ccc3n2)C1` (centres undefined), the RP-LC retention time was determined as 693 s. The compound `O=C(c1n[nH]c2ccccc12)N1CCCC1c1nc(-c2cccc(C(F)(F)F)c2)no1` (centres undefined) returned an RP-LC retention time of 1330 s.

As to `c1cncc(-c2nc(-c3ccc4c(c3)nnn4CCN3CCCCC3)no2)c1`, the RP-LC retention time is 614 s. The compound `O=C(c1ccc2c(c1)OCO2)N1CCC(Nc2ncnc3c2CCC3)C1` (centres undefined) had an RP-LC retention time of 564 s.

With `CC(=O)Oc1ccc(C(=O)NCCc2c[nH]c3ccc(Cl)cc23)cc1`, the RP-LC retention time came to 853 s. As to `O=C(Nc1cccc(F)c1)N1CCN(c2ncccc2-c2nnc(C3CC3)o2)CC1`, the RP-LC retention time was found to be 783 s.

Turning to `COc1cc(-c2noc(CCn3nc(-c4ccc(Cl)cc4)ccc3=O)n2)cc(OC)c1OC`, the RP-LC retention time turned out to be 974 s. Consider `O=C(c1ccc(F)cc1)N1CCC(C(=O)N2CCc3ccccc32)CC1`, for which the RP-LC retention time was 822 s. Next, `Cc1ccc(S(=O)(=O)N2CC(c3nnc(-c4ccncc4)o3)C3(CCOCC3)C2)cc1` (centres undefined): 697 s; `CC(C)c1ccc(NC(=O)C2CCCN(c3ncnc4c3nc3n4CCCCC3)C2)cc1` (centres undefined): 899 s. Compound `CCCNc1cc(N2CCC(CCC(=O)NCCc3cccs3)CC2)ncn1` registered an RP-LC retention time of 662 s. `CSc1nnc(-c2nn(C)c3c2CN(C(=O)c2ccc(F)cc2)CC3)n1C` registered an RP-LC retention time of 656 s.

`Cc1noc(C)c1S(=O)(=O)N1CCC(c2noc(-c3ccccc3)n2)C1` (centres undefined) displayed an RP-LC retention time of 1010 s. Next, `COc1ccc(CNC(=O)N2CCC3(C2)C(=O)N(C)c2ccc(OC)cc23)cc1` (centres undefined): 747 s; `O=C(Nc1cc(-c2ccsc2)no1)C1CC1`: 792 s. Next, `Cc1cc(C)c(NC(=O)C2CCN(S(=O)(=O)c3c(C)nn(-c4ccccc4)c3C)CC2)c(C)c1`: 1010 s; `O=C(NCc1ccc2c(c1)OCO2)c1ccc(S(=O)(=O)NCC2CCCO2)cc1` (centres undefined): 688 s; `CCOc1ccc(NC(=O)C2CC(=O)N(c3n[nH]c4cccc(F)c34)C2)cc1` (centres undefined): 744 s. Take `COCCn1cc(CCNC(=O)c2cc(F)cc(F)c2)c2cccnc21`: the RP-LC retention time is 737 s. Consider `CC(C)(CO)NS(=O)(=O)c1cc(-c2nnc(-c3ccccc3)o2)ccc1F`, for which the RP-LC retention time was found to be 773 s.
